Assay results published in paper PMC9154192 (PLoS Biology, 2022).
In brackets after ≈: the same amount, converted by molar mass.

What was measured:
[1] = system: clinically isolated MDR, XDR, and TDR M. tuberculosis strains; assay: microbe, parasite or virus in culture; type: cell-based; conditions: Mycobacterium tuberculosis
M. arupense = assay: microbe, parasite or virus in culture; type: cell-based, Mycobacterium arupense; conditions: Mycolicibacter arupensis
M. aubagnense = assay: microbe, parasite or virus in culture; type: cell-based, Mycobacterium aubagnense; conditions: Mycolicibacterium aubagnense
M. chitae = assay: microbe, parasite or virus in culture; type: cell-based, Mycobacterium chitae; conditions: Mycolicibacterium chitae
M. colombiense = assay: microbe, parasite or virus in culture; type: cell-based; conditions: Mycobacterium colombiense
M. conceptionense = assay: microbe, parasite or virus in culture; type: cell-based, Mycobacterium conceptionense; conditions: Mycolicibacterium senegalense
M. fortuitum = assay: microbe, parasite or virus in culture; type: cell-based, Mycobacterium fortuitum; conditions: Mycolicibacterium fortuitum
M. gilvum = assay: microbe, parasite or virus in culture; type: cell-based, Mycobacterium gilvum; conditions: Mycolicibacterium gilvum
M. gordonae = assay: microbe, parasite or virus in culture; type: cell-based; conditions: Mycobacterium gordonae
M. kansasii = assay: microbe, parasite or virus in culture; type: cell-based; conditions: Mycobacterium kansasii
M. kyorinense = assay: microbe, parasite or virus in culture; type: cell-based; conditions: Mycobacterium kyorinense
M. marinum = assay: microbe, parasite or virus in culture; type: cell-based; conditions: Mycobacterium marinum
M. marseiliense = assay: microbe, parasite or virus in culture; type: cell-based; conditions: Mycobacterium
M. peregrinum = assay: microbe, parasite or virus in culture; type: cell-based, Mycobacterium peregrinum; conditions: Mycolicibacterium peregrinum
Acinetobacter baumannii = assay: Broth dilution MIC (CLSI); type: cell-based; conditions: read-out: MIC
Description: (§1) Bacteria (Acinetobacter baumannii NCCP 14782, Citrobacter freundii NCCP 14766, Enterobacter aerogenes NCCP 14761, Escherichia coli NCCP 14762, Escherichia coli O157 NCCP 14541, Klebsiella pneumoniae NCCP 14764, Proteus mirabilis NCCP 14763, Proteus vulgaris NCCP 14765, Pseudomonas aeruginosa NCCP 14781, Salmonella Enteritidis NCCP 14771, Salmonella Paratyphi A NCCP 14759, Salmonella Typhimurium NCCP 16207, Serratia marcescens NCCP 14770, Shigella boydii NCCP 14745, Shigella dysenteriae NCCP 14746, Shigella flexneri NCCP 14744, Shigella sonnei NCCP 14773, Bacillus subtilis NCCP 11101, Corynebacterium diphtheriae NCCP 10353, Staphylococcus aureus MSSA NCCP 14780, Staphylococcus aureus MRSA NCCP 14769, Staphylococcus epidermidis NCCP 14768, Streptococcus pneumoniae NCCP 14774) and fungi (Aspergillus fumigatus NCCP 22454, Candida albicans NCCP 32557, Cryptococcus neoformans NCCP 32559, Microsporum canis NCCP 22454, Rhizopus oryzae NCCP 22458, Saccharomyces cerevisiae NCCP 32558, Trichophyton rubrum NCCP 22456) strains were obtained from the National Culture Collection for Pathogens (NCCP) (Chungbuk, Korea). The MIC of each agent was determined following the Clinical and Laboratory Standards Institute (CLSI).[40]

Aspergillus fumigatus = assay: Broth dilution MIC (CLSI); type: cell-based; conditions: read-out: MIC
Description: as §1

Bacillus subtilis = assay: Broth dilution MIC (CLSI); type: cell-based; conditions: read-out: MIC
Description: as §1

Candida albicans = assay: Broth dilution MIC (CLSI); type: cell-based; conditions: read-out: MIC
Description: as §1

Citrobacter freundii = assay: Broth dilution MIC (CLSI); type: cell-based; conditions: read-out: MIC
Description: as §1

[2] = system: Corynebacterium diphtheriae; assay: Broth dilution MIC (CLSI); type: cell-based; conditions: read-out: MIC
Description: as §1

Cryptococcus neoformans = assay: Broth dilution MIC (CLSI); type: cell-based; conditions: read-out: MIC
Description: as §1

Enterobacter aerogenes = assay: Broth dilution MIC (CLSI); type: cell-based; conditions: Klebsiella aerogenes; Enterobacter aerogenes; read-out: MIC
Description: as §1

Escherichia coli O157 = assay: Broth dilution MIC (CLSI); type: cell-based; conditions: read-out: MIC
Description: as §1

Escherichia coli = assay: Broth dilution MIC (CLSI); type: cell-based; conditions: read-out: MIC
Description: as §1

Klebsiella pneumoniae = assay: Broth dilution MIC (CLSI); type: cell-based; conditions: read-out: MIC
Description: as §1

Microsporum canis = assay: Broth dilution MIC (CLSI); type: cell-based; conditions: read-out: MIC
Description: as §1

Proteus mirabilis = assay: Broth dilution MIC (CLSI); type: cell-based; conditions: read-out: MIC
Description: as §1

Proteus vulgaris = assay: Broth dilution MIC (CLSI); type: cell-based; conditions: read-out: MIC
Description: as §1

Pseudomonas aeruginosa = assay: Broth dilution MIC (CLSI); type: cell-based; conditions: read-out: MIC
Description: as §1

Rhizopus oryzae = assay: Broth dilution MIC (CLSI); type: cell-based; conditions: Rhizopus arrhizus; Rhizopus oryzae; read-out: MIC
Description: as §1

Saccharomyces cerevisiae = assay: Broth dilution MIC (CLSI); type: cell-based; conditions: read-out: MIC
Description: as §1

Salmonella Enteritidis = assay: Broth dilution MIC (CLSI); type: cell-based; conditions: Salmonella enterica; Salmonella Enteritidis; read-out: MIC
Description: as §1

Salmonella Paratyphi A = assay: Broth dilution MIC (CLSI); type: cell-based; conditions: Salmonella enterica; Salmonella Paratyphi A; read-out: MIC
Description: as §1

Salmonella Typhimurium = assay: Broth dilution MIC (CLSI); type: cell-based; conditions: Salmonella enterica; Salmonella Typhimurium; read-out: MIC
Description: as §1

Serratia marcescens = assay: Broth dilution MIC (CLSI); type: cell-based; conditions: read-out: MIC
Description: as §1

Shigella boydii = assay: Broth dilution MIC (CLSI); type: cell-based; conditions: read-out: MIC
Description: as §1

Shigella dysenteriae = assay: Broth dilution MIC (CLSI); type: cell-based; conditions: read-out: MIC
Description: as §1

Shigella flexneri = assay: Broth dilution MIC (CLSI); type: cell-based; conditions: read-out: MIC
Description: as §1

Shigella sonnei = assay: Broth dilution MIC (CLSI); type: cell-based; conditions: read-out: MIC
Description: as §1

[3] = system: Staphylococcus aureus, MRSA; assay: Broth dilution MIC (CLSI); type: cell-based; conditions: read-out: MIC
Description: as §1

[4] = system: Staphylococcus aureus, MSSA; assay: Broth dilution MIC (CLSI); type: cell-based; conditions: read-out: MIC
Description: as §1

[5] = system: Staphylococcus epidermidis; assay: Broth dilution MIC (CLSI); type: cell-based; conditions: read-out: MIC
Description: as §1

Streptococcus pneumoniae = assay: Broth dilution MIC (CLSI); type: cell-based; conditions: read-out: MIC
Description: as §1

Question: What does the source list for `NNC(=O)c1ccncc1` [INH, isoniazid, reference compound]?
Answer: MIC ([1]; TDR-1): 12.5 µg/mL (≈ 91.1 µM); MIC ([1]; TDR-2): 6.3 µg/mL (≈ 45.9 µM); MIC ([1]; TDR-3): 12.5 µg/mL (≈ 91.1 µM); MIC (M. arupense): 50 µg/mL (≈ 365 µM); MIC (M. aubagnense): > 100 µg/mL; MIC (M. chitae): 12.5 µg/mL (≈ 91.1 µM); MIC (M. colombiense): 12.5 µg/mL (≈ 91.1 µM); MIC (M. conceptionense): 25 µg/mL (≈ 182 µM); MIC (M. fortuitum): 25 µg/mL (≈ 182 µM); MIC (M. gilvum): 12.5 µg/mL (≈ 91.1 µM); MIC (M. gordonae): > 100 µg/mL; MIC (M. kansasii): 0.2 µg/mL (≈ 1.46 µM); MIC (M. kyorinense): 3.1 µg/mL (≈ 22.6 µM); MIC (M. marinum): 25 µg/mL (≈ 182 µM); MIC (M. marseiliense): > 100 µg/mL; MIC (M. peregrinum): 6.3 µg/mL (≈ 45.9 µM); MIC (Acinetobacter baumannii): > 100 µg/mL; MIC (Aspergillus fumigatus): > 100 µg/mL; MIC (Bacillus subtilis): > 100 µg/mL; MIC (Candida albicans): > 100 µg/mL; MIC (Citrobacter freundii): > 100 µg/mL; MIC [2]: > 100 µg/mL; MIC (Cryptococcus neoformans): > 100 µg/mL; MIC (Enterobacter aerogenes): > 100 µg/mL; MIC (Escherichia coli O157): > 100 µg/mL; MIC (Escherichia coli): > 100 µg/mL; MIC (Klebsiella pneumoniae): > 100 µg/mL; MIC (Microsporum canis): > 100 µg/mL; MIC (Proteus mirabilis): > 100 µg/mL; MIC (Proteus vulgaris): > 100 µg/mL; MIC (Pseudomonas aeruginosa): > 100 µg/mL; MIC (Rhizopus oryzae): > 100 µg/mL; MIC (Saccharomyces cerevisiae): > 100 µg/mL; MIC (Salmonella Enteritidis): > 100 µg/mL; MIC (Salmonella Paratyphi A): > 100 µg/mL; MIC (Salmonella Typhimurium): > 100 µg/mL; MIC (Serratia marcescens): > 100 µg/mL; MIC (Shigella boydii): > 100 µg/mL; MIC (Shigella dysenteriae): > 100 µg/mL; MIC (Shigella flexneri): > 100 µg/mL; MIC (Shigella sonnei): > 100 µg/mL; MIC [3]: > 100 µg/mL; MIC [4]: > 100 µg/mL; MIC [5]: > 100 µg/mL; MIC (Streptococcus pneumoniae): > 100 µg/mL

Question: For `COC(=O)[C@@H]1CCC(=O)N1Cc1cc2ccc(OC)cc2c2cc(OC)c(OC)cc12` [PP1S, (S)-N-[(2,3,6-Trimethoxy-10-phenanthryl)methyl]-pyroglutamic acid methyl ester], which MIC ([1]; TDR-1) is on record?
Answer: 3.3 µg/mL (≈ 7.79 µM)

Question: And the MIC ([1]; TDR-2)?
Answer: 0.8 µg/mL (≈ 1.89 µM)

Question: What about the MIC ([1]; TDR-3) of the same compound?
Answer: 3.1 µg/mL (≈ 7.32 µM)

Question: What about the MIC (M. arupense) of the same compound?
Answer: > 100 µg/mL

Question: What about the MIC (M. aubagnense) of the same compound?
Answer: > 100 µg/mL

Question: What about the MIC (M. chitae) of the same compound?
Answer: > 100 µg/mL

Question: What about the MIC (M. colombiense) of the same compound?
Answer: > 100 µg/mL

Question: And the MIC (M. conceptionense)?
Answer: > 100 µg/mL

Question: And the MIC (M. fortuitum)?
Answer: > 100 µg/mL

Question: What about the MIC (M. gilvum) of the same compound?
Answer: > 100 µg/mL

Question: And the MIC (M. gordonae)?
Answer: > 100 µg/mL

Question: And the MIC (M. kansasii)?
Answer: > 100 µg/mL

Question: And the MIC (M. kyorinense)?
Answer: > 100 µg/mL

Question: And the MIC (M. marinum)?
Answer: > 100 µg/mL

Question: And the MIC (M. marseiliense)?
Answer: > 100 µg/mL

Question: What about the MIC (M. peregrinum) of the same compound?
Answer: > 100 µg/mL

Question: What about the MIC (Acinetobacter baumannii) of the same compound?
Answer: > 100 µg/mL

Question: What about the MIC (Aspergillus fumigatus) of the same compound?
Answer: > 100 µg/mL

Question: And the MIC (Bacillus subtilis)?
Answer: > 100 µg/mL

Question: And the MIC (Candida albicans)?
Answer: > 100 µg/mL

Question: What about the MIC (Citrobacter freundii) of the same compound?
Answer: > 100 µg/mL

Question: What about the MIC [2] of the same compound?
Answer: > 100 µg/mL

Question: What about the MIC (Cryptococcus neoformans) of the same compound?
Answer: > 100 µg/mL

Question: And the MIC (Enterobacter aerogenes)?
Answer: > 100 µg/mL

Question: And the MIC (Escherichia coli O157)?
Answer: > 100 µg/mL

Question: What about the MIC (Escherichia coli) of the same compound?
Answer: > 100 µg/mL

Question: And the MIC (Klebsiella pneumoniae)?
Answer: > 100 µg/mL

Question: What about the MIC (Microsporum canis) of the same compound?
Answer: > 100 µg/mL

Question: And the MIC (Proteus mirabilis)?
Answer: > 100 µg/mL

Question: And the MIC (Proteus vulgaris)?
Answer: > 100 µg/mL

Question: And the MIC (Pseudomonas aeruginosa)?
Answer: > 100 µg/mL

Question: What about the MIC (Rhizopus oryzae) of the same compound?
Answer: > 100 µg/mL

Question: And the MIC (Saccharomyces cerevisiae)?
Answer: > 100 µg/mL

Question: What about the MIC (Salmonella Enteritidis) of the same compound?
Answer: > 100 µg/mL

Question: And the MIC (Salmonella Paratyphi A)?
Answer: > 100 µg/mL

Question: And the MIC (Salmonella Typhimurium)?
Answer: > 100 µg/mL

Question: What about the MIC (Serratia marcescens) of the same compound?
Answer: > 100 µg/mL

Question: What about the MIC (Shigella boydii) of the same compound?
Answer: > 100 µg/mL

Question: And the MIC (Shigella dysenteriae)?
Answer: > 100 µg/mL

Question: And the MIC (Shigella flexneri)?
Answer: > 100 µg/mL

Question: And the MIC (Shigella sonnei)?
Answer: > 100 µg/mL

Question: What about the MIC [3] of the same compound?
Answer: > 100 µg/mL

Question: And the MIC [4]?
Answer: > 100 µg/mL

Question: What about the MIC [5] of the same compound?
Answer: > 100 µg/mL

Question: And the MIC (Streptococcus pneumoniae)?
Answer: > 100 µg/mL
